Data set [1] relates to Escherichia coli and Psudomnas aeruginosa isolates. The arrangement: method as in Ferre et al., 2009. As to conditions: ref Ferre et al., 2009; cited from earlier work.
The test system of data set [2] is Staphylococcus aureus ATCC29213. The data set is described as follows: MIC/MBC, broth microdilution. As to conditions: Table 1; broth microdilution CLSI M100-S25, MH broth, 37°C, 18 h, three independent repeats. It is filed as cell-based. (In broth dilution the organism is exposed to a series of concentrations in liquid medium.)
Data set [3] deals with RAW264.7 cells. As to conditions: peptide 150 μg/mL, 24 h, WST-1, mean ± SD, three repeats. In general terms: Formazan colour is commonly taken as a measure of viable cells.
Data set [4] concerns Escherichia coli ATCC25922. As to conditions: Table 1; broth microdilution CLSI M100-S25, MH broth, 37°C, 18 h, three independent repeats.
The subject of data set [5] is sheep red blood cells. As to conditions: sheep red blood cells in PBS, 37°C, 1 h, OD576, relative to melittin, mean ± SD, three repeats; for Hemolytic rate, 50 μg/mL: 50 μg/mL peptide; for Hemolytic rate, 100 μg/mL: 100 μg/mL peptide; for Hemolytic rate, 150 μg/mL: 150 μg/mL peptide; for Hemolytic rate, 300 μg/mL: 300 μg/mL peptide.
The subject of data set [6] is MAC-T cells. As to conditions: peptide 150 μg/mL, 24 h, WST-1, mean ± SD, three repeats.
For data set [7], the system named is various microorganisms. The data set is described as follows: MIC/MBC, summary statements over several strains. It is filed as cell-based. As to conditions: for MIC against S. aureus ATCC29213 and E. coli ATCC25922 (both strains together): summary of Table 1.
Data set [8] relates to methicillin-resistant S. aureus ATCC33591. Kind of data set: Mouse skin infection model. It is filed as in vivo. As to conditions: 24 h. As for the experimental part:
(§1) Female ICR mice (∼18 g, four weeks old) bought from Yangzhou University were used in this study. They were reared with ad libitum access to drinking water and antibiotic-free feed. The animal experiments were conducted in strict accordance with the Laboratory Animal Welfare and Animal Experimental Ethical Certificate, as issued by Committee on Animal Welfare and Experimental Ethics in Jiangsu Academy of Agricultural Sciences (approval no. JAAS20200516 and JAAS20211208).
(§2) The mouse skin infection model and bacteremia model were established to evaluate the treatment efficacy of RW-BP100-4D on local and system infections, respectively. In each model, ICR female mice were equally allocated into different treatment groups and each group contained six mice. The mouse skin infection model and bacteremia model were constructed according to previously described methods ([Natalia et al., 2019]; [Song et al., 2020]). The mice were challenged with methicillin-resistant S. aureus ATCC33591 (mecA+, MRSA) via spreading on skin lesion (5 × 10^5 CFU/mL, 0.1 mL) or intraperitoneal injection (3.0 × 10^8CFU/mL, 0.5 mL). […] S. aureus isolates were counted by using the Chromagar selective agar (Chromagar, France) supplemented with 8 μg/mL oxacillin.

The test system of data set [9] is S. enterica ATCC13076. The data set is described as follows: Intracellular antibacterial activity in MAC-T cells. It is filed as cell-based, Salmonella enterica. The settings on record: 2 h, infected MAC-T cells. The method, then:
(§3) The intracellular antibacterial activity of RW-BP100-4D against S. aureus ATCC29213 and S. enterica ATCC13076 were determined as described previously ([John et al., 2019]). MAC-T cells were cultured in a 12-well plate and then infected with S. aureus ATCC29213 or S. enterica ATCC13076 (∼10^5CFU, MOI = 10) for 1 h. The spare bacteria were eliminated by treating with kanamycin (100 μg/mL) for 1 h. After that, kanamycin was removed by washing with PBS for 4 times. Then RW-BP100-4D or RW-BP100 were added to a final concentration of 50 μg/mL, respectively and incubated for 2 h. Meanwhile, kanamycin (50 μg/mL) and PBS were set as the antibiotic treatment group and treatment control group, respectively. Finally, MAC-T cells were treated with 0.1% TritonX-100. The lysates were serially diluted and spread on selective agar plates to enumerate the intracellular live bacteria. Each test was performed with three independent repeats.

Data set [10] relates to S. aureus ATCC29213 mature biofilm. Kind of data set: Mature biofilm dispersal assay (crystal violet). As to conditions: peptide 200 μg/mL, 30 min, 37°C on 24 h biofilm, crystal violet OD590. It is filed as cell-based, Staphylococcus aureus. The method, then:
Each test was performed with three independent repeats.

The test system of data set [11] is human erythrocytes. The settings on record: peptide 4.9 μM; ref Torcato et al., 2013; cited from earlier work.
The test system of data set [12] is HeLa. As to conditions: peptide concentration 11 μM; ref Torcato et al., 2013; cited from earlier work.
In data set [13] the test system is methicillin-resistant S. aureus ATCC33591. The data set is described as follows: Mouse bacteremia model. The settings on record: 25 mg/kg intraperitoneal 2 h after infection; 24 h. It is filed as in vivo. The method, then: as §1, §2
The subject of data set [14] is S. aureus ATCC29213. The data set is described as follows: Intracellular antibacterial activity in MAC-T cells. It is filed as cell-based, Staphylococcus aureus. As to conditions: 2 h, infected MAC-T cells. The method, then:
as §3

In brackets after ≈: the same amount, converted by molar mass. Where a SMILES comes first, the peptide text is derived from it. Where no end group is shown, it is not given here. Some results are limits rather than exact numbers.
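Throughout, for Hemolytic rate, 100 μg/mL: hemolysis expressed in % from supernatant absorbance, with PBS-treated cells as 0% baseline and melittin as 100%, peptide mixed 1:1 with an 8% v/v erythrocyte suspension.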
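Throughout, for Hemolytic rate, 150 μg/mL: hemolysis expressed in % from supernatant absorbance, with PBS-treated cells as 0% baseline and melittin as 100%, peptide mixed 1:1 with an 8% v/v erythrocyte suspension.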
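Throughout, for Hemolytic rate, 300 μg/mL: hemolysis expressed in % from supernatant absorbance, with PBS-treated cells as 0% baseline and melittin as 100%, peptide mixed 1:1 with an 8% v/v erythrocyte suspension.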
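Throughout, for Hemolytic rate, 50 μg/mL: hemolysis expressed in % from supernatant absorbance, with PBS-treated cells as 0% baseline and melittin as 100%, peptide mixed 1:1 with an 8% v/v erythrocyte suspension.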

As for “KKLFKKILKYL-NH2 [BP100, short cationic AMP of 11 amino acids (…-NH2), hybrid of cecropin A and melittin]”, the “MIC against Escherichia coli and Psudomnas aeruginosa isolates” value in [1] is 2.5 to 5 µM.

Take `CC[C@H](C)[C@H](NC(=O)[C@H](CCCNC(=N)N)NC(=O)[C@H](CCCNC(=N)N)NC(=O)[C@H](Cc1ccccc1)NC(=O)[C@H](CC(C)C)NC(=O)[C@H](CCCNC(=N)N)NC(=O)[C@@H](N)CCCNC(=N)N)C(=O)N[C@H](CC(C)C)C(=O)N[C@@H](CCCNC(=N)N)C(=O)N[C@@H](Cc1c[nH]c2ccccc12)C(=O)N[C@@H](CC(C)C)C(N)=O` [RW-BP100-8D] (HELM PEPTIDE1{R.R.L.F.R.R.I.[dL].R.W.L.[am]}$$$$V2.0): the “MIC Staphylococcus aureus ATCC29213” value in [2] turned out to be 12 mg/L (≈ 7.58 µM). In addition, in data set [3], the “Cell survival rate, RAW264.7” value is on record as 20.30 ± 3.26%. In addition, the “MIC Escherichia coli ATCC25922” value in data set [4] was found to be 12 mg/L (≈ 7.58 µM). In addition, in [5], the “Hemolytic rate, 50 μg/mL” value was 0.91 ± 0.38%; the “Hemolytic rate, 100 μg/mL” value is listed as 1.38 ± 0.58%; the “Hemolytic rate, 150 μg/mL” value worked out at 26.19 ± 0.10%; the “Hemolytic rate, 300 μg/mL” value worked out at 50.11 ± 3.17%. In data set [6], the “Cell survival rate, MAC-T” value turned out to be 54.78 ± 2.65%. Besides, in data set [7], the “MIC against S. aureus ATCC29213 and E. coli ATCC25922 (both strains together)” value (from here on “MIC … (both strains together)”) is 3 to 12 mg/L.

RRLFRRILRWL-NH2 [RW-BP100]: the “Reduction of S. aureus ATCC33591 in infected mouse skin” value in data set [8] (peptide 50 μg (1 mg/mL, 50 μL) on skin lesion 2 h after infection, ICR female mice) is recorded as 3.13 log. Moreover, in data set [9] (peptide 50 μg/mL, CFU count), the “Elimination of intracellular S. enterica ATCC13076” value is given as 2.57 log. Besides, the “Mature biofilm matrix lost compared to the PBS control” value in [10] worked out at 29.4%. Also, the “Hemolytic rate toward human erythrocytes” value in data set [11] is on record as 50%. In addition, the “Cell death rate of HeLa” value in [12] is listed as 73%. For the same molecule, in [13], the “Bacterial loads in heart, liver and kidney at 25 mg/kg” value was “did not significantly reduce”. Also, the “MBC values relative to the corresponding MIC values” in [7] (over the strains of Table 2) is listed as 4–8 fold. The “Elimination of intracellular S. aureus ATCC29213” value in [14] (peptide 50 μg/mL, CFU count) turned out to be 2.34 log.

In the case of `CC[C@H](C)[C@H](NC(=O)[C@H](CCCNC(=N)N)NC(=O)[C@H](CCCNC(=N)N)NC(=O)[C@H](Cc1ccccc1)NC(=O)[C@H](CC(C)C)NC(=O)[C@H](CCCNC(=N)N)NC(=O)[C@@H](N)CCCNC(=N)N)C(=O)N[C@@H](CC(C)C)C(=O)N[C@@H](CCCNC(=N)N)C(=O)N[C@@H](Cc1c[nH]c2ccccc12)C(=O)N[C@H](CC(C)C)C(N)=O` [RW-BP100-11D] (HELM PEPTIDE1{R.R.L.F.R.R.I.L.R.W.[dL].[am]}$$$$V2.0), the “MIC Staphylococcus aureus ATCC29213” value in data set [2] is greater than 50 mg/L. Also, in [3], the “Cell survival rate, RAW264.7” value is 83.27 ± 4.56%. For the same molecule, in data set [4], the “MIC Escherichia coli ATCC25922” value was greater than 50 mg/L. Moreover, in [5], the “Hemolytic rate, 50 μg/mL” value is 0.65 ± 0.60%; the “Hemolytic rate, 100 μg/mL” value is listed as 1.42 ± 0.15%; the “Hemolytic rate, 150 μg/mL” value turned out to be 17.36 ± 1.92%; the “Hemolytic rate, 300 μg/mL” value is listed as 46.97 ± 6.45%. The “Cell survival rate, MAC-T” value in data set [6] stood at 77.81 ± 5.28%. In addition, the “MIC … (both strains together)” value in [7] was greater than 50 mg/L.

As to `CC1(C)S[C@@H]2[C@H](NC(=O)[C@H](N)c3ccccc3)C(=O)N2[C@H]1C(=O)O` [ampicillin], the “Bacteria load in infected mouse skin, antibiotic control” value in data set [8] (ampicillin 1 mg/mL, 100 μL on skin lesion) is recorded as “did not decrease the bacteria load”.

For `CC[C@@H](C)[C@@H](NC(=O)[C@@H](CCCNC(=N)N)NC(=O)[C@@H](CCCNC(=N)N)NC(=O)[C@@H](Cc1ccccc1)NC(=O)[C@@H](CC(C)C)NC(=O)[C@@H](CCCNC(=N)N)NC(=O)[C@H](N)CCCNC(=N)N)C(=O)N[C@H](CC(C)C)C(=O)N[C@H](CCCNC(=N)N)C(=O)N[C@H](Cc1c[nH]c2ccccc12)C(=O)N[C@H](CC(C)C)C(N)=O` [RW-BP100-All-D] (HELM PEPTIDE1{[dR].[dR].[dL].[dF].[dR].[dR].[dI].[dL].[dR].[dW].[dL].[am]}$$$$V2.0), the “MIC Staphylococcus aureus ATCC29213” value in data set [2] turned out to be 6 mg/L (≈ 3.79 µM). Also, in data set [3], the “Cell survival rate, RAW264.7” value turned out to be 23.37 ± 1.58%. In [4], the “MIC Escherichia coli ATCC25922” value was 6 mg/L (≈ 3.79 µM). Also, in data set [5], the “Hemolytic rate, 50 μg/mL” value came out at 1.94 ± 0.94%; the “Hemolytic rate, 100 μg/mL” value is given as 2.75 ± 0.23%; the “Hemolytic rate, 150 μg/mL” value worked out at 30.39 ± 2.11%; the “Hemolytic rate, 300 μg/mL” value amounted to 51.40 ± 1.94%. In addition, the “Cell survival rate, MAC-T” value in [6] amounted to 14.23 ± 2.37%. The “MIC … (both strains together)” value in [7] fell in the range of 3 to 12 mg/L.

For the molecule `NC[C@H]1O[C@H](O[C@H]2[C@H](O)[C@@H](O[C@H]3O[C@H](CO)[C@@H](O)[C@H](N)[C@H]3O)[C@H](N)C[C@@H]2N)[C@H](O)[C@@H](O)[C@@H]1O` [kanamycin], the “Intracellular CFU versus the untreated group, S. enterica ATCC13076” value in data set [9] (kanamycin 50 μg/mL) is reported as “no significant difference”. The “Intracellular CFU versus the untreated group, S. aureus ATCC29213” value in data set [14] (kanamycin 50 μg/mL) is reported as “no significant difference”.

For `CC[C@H](C)[C@H](NC(=O)[C@H](CCCNC(=N)N)NC(=O)[C@@H](CCCNC(=N)N)NC(=O)[C@H](Cc1ccccc1)NC(=O)[C@H](CC(C)C)NC(=O)[C@H](CCCNC(=N)N)NC(=O)[C@@H](N)CCCNC(=N)N)C(=O)N[C@@H](CC(C)C)C(=O)N[C@@H](CCCNC(=N)N)C(=O)N[C@@H](Cc1c[nH]c2ccccc12)C(=O)N[C@@H](CC(C)C)C(N)=O` [RW-BP100-5D] (HELM PEPTIDE1{R.R.L.F.[dR].R.I.L.R.W.L.[am]}$$$$V2.0), the “MIC Staphylococcus aureus ATCC29213” value in [2] is 6 mg/L (≈ 3.79 µM). The “Cell survival rate, RAW264.7” value in data set [3] came to 39.05 ± 1.65%. The “MIC Escherichia coli ATCC25922” value in data set [4] was found to be 6 mg/L (≈ 3.79 µM). Moreover, in [5], the “Hemolytic rate, 50 μg/mL” value was found to be 1.26 ± 0.54%; the “Hemolytic rate, 100 μg/mL” value was determined as 2.49 ± 0.72%; the “Hemolytic rate, 150 μg/mL” value stood at 29.72 ± 0.94%; the “Hemolytic rate, 300 μg/mL” value is reported as 51.41 ± 4.64%. In addition, the “Cell survival rate, MAC-T” value in data set [6] was determined as 77.84 ± 5.63%. In addition, the “MIC … (both strains together)” value in data set [7] lay within 3 to 12 mg/L.

These data come from PMC8822125, “RW-BP100-4D, a Promising Antimicrobial Candidate With Broad-Spectrum Bactericidal Activity” (Frontiers in Microbiology, 2022).
